Test system: brains, heart, liver, muscle, and DRG of the NHPs
Test: Maturation of TTM-001 and TTM-002 capsids, NGS enrichment in NHP tissues
Format: in vivo
Excerpt: This Example describes maturation of the AAV9 capsid variants, TTM-001 (SEQ ID NO: 981 (amino acid) and 983 (DNA), comprising SEQ ID NO: 941 (encoded by SEQ ID NO: 942)) and TTM-002 (SEQ ID NO: 982 (amino acid) and 984 (DNA), comprising SEQ ID NO: […] (encoded by SEQ ID NO: 944)) in NHPs to further enhance their transduction and biodistribution in the central nervous system as well as other tissues, and evolve the AAV capsid variants to provide further cross-species compatibility. Two approaches were used to mature the TTM-001 and TTM-002 capsid sequences in order to randomize and mutate within and around the peptide insert comprised within loop IV of the capsid variant. […] In the first maturation approach, sets of three contiguous amino acids were randomized across the mutagenesis region in the TTM-001 and TTM-002 sequences, which spanned from position 450 to position 466, numbered according to SEQ ID NO: 981 and 982. In the second maturation approach, mutagenic primers were used to introduce point mutations at a low frequency, scattered across the mutagenesis region in the TTM-001 and TTM-002 sequences ranging from position 449 to position 466, numbered according to SEQ ID NO: 981 and 982. AAV capsid variants arising from each maturation approach for TTM-001 and TTM-002 were pooled together, for subsequent testing and characterization in NHPs.
The library of pooled matured AAV capsid variants generated using the first maturation approach and the second maturation approach for the TTM-001 and TTM-002 AAV capsid variants were injected into two NHPs. […] Following RNA recovery and RT-PCR amplification, a systematic NGS enrichment analysis was performed to calculate the fold enrichment ratio relative to an AAV9 control, and the peptides comprised within the variants were identified.
Following the RNA recovery and NGS analysis from the second maturation approach, approximately 680,000 capsid variants were identified. The 680,000 matured capsid variants were then filtered based on samples with a raw virus count greater than 10 and a coefficient of variance (CV) of less than 1, which was calculated for each peptide across the brain samples taken from the two NHPs. […] Using this filtering criteria, this led to approximately 64,000 matured capsid variants.

[1] = NHP DRG, NGS, relative to AAV9 control
[2] = NHP brain, NGS, relative to AAV9 control
[3] = NHP heart, NGS, relative to AAV9 control
[4] = NHP liver DNA, NGS, relative to AAV9 control
[5] = NHP liver RNA, NGS, TTM-001 and TTM-002 matured AAV capsid variants, relative to AAV9 control
[6] = NHP muscle, NGS, relative to AAV9 control

Sequence: KTINGSGSPHSRMRNQQT
- Fold Enrichment relative to AAV9, DRG (NHP) [1]: 0.000 fold
- Fold Enrichment relative to AAV9, Brain (NHP) [2]: 0.000 fold
- Fold Enrichment relative to AAV9, Heart (NHP) [3]: 0.000 fold
- Fold Enrichment relative to AAV9, Liver DNA (NHP) [4]: 2.816 fold
- Fold Enrichment relative to AAV9, Liver RNA (NHP) [5]: 48.902 fold
- Fold Enrichment relative to AAV9, Muscle (NHP) [6]: 0.000 fold

Sequence: KTINGSGSPHSSCTNQQT
- Fold Enrichment relative to AAV9, DRG (NHP) [1]: 0.000 fold
- Fold Enrichment relative to AAV9, Brain (NHP) [2]: 0.000 fold
- Fold Enrichment relative to AAV9, Heart (NHP) [3]: 0.000 fold
- Fold Enrichment relative to AAV9, Liver DNA (NHP) [4]: 3.363 fold
- Fold Enrichment relative to AAV9, Liver RNA (NHP) [5]: 11.382 fold
- Fold Enrichment relative to AAV9, Muscle (NHP) [6]: 0.000 fold

Sequence: KTINGSGSPHSTCLNQQT
- Fold Enrichment relative to AAV9, DRG (NHP) [1]: 0.000 fold
- Fold Enrichment relative to AAV9, Brain (NHP) [2]: 0.000 fold
- Fold Enrichment relative to AAV9, Heart (NHP) [3]: 0.000 fold
- Fold Enrichment relative to AAV9, Liver DNA (NHP) [4]: 4.762 fold
- Fold Enrichment relative to AAV9, Liver RNA (NHP) [5]: 11.132 fold
- Fold Enrichment relative to AAV9, Muscle (NHP) [6]: 0.000 fold

Sequence: KTINGSGSPHSTTCNQQT
- Fold Enrichment relative to AAV9, DRG (NHP) [1]: 0.000 fold
- Fold Enrichment relative to AAV9, Brain (NHP) [2]: 0.000 fold
- Fold Enrichment relative to AAV9, Heart (NHP) [3]: 0.000 fold
- Fold Enrichment relative to AAV9, Liver DNA (NHP) [4]: 3.315 fold
- Fold Enrichment relative to AAV9, Liver RNA (NHP) [5]: 23.771 fold
- Fold Enrichment relative to AAV9, Muscle (NHP) [6]: 0.000 fold

Sequence: KTINGSGSPHSVFENQQT
- Fold Enrichment relative to AAV9, DRG (NHP) (NGS fold-enrichment, DRG, NHP, relative to AAV9): 0.000 fold
- Fold Enrichment relative to AAV9, Brain (NHP) (NGS fold-enrichment, brain, NHP, relative to AAV9): 0.000 fold
- Fold Enrichment relative to AAV9, Heart (NHP) (NGS fold-enrichment, heart, NHP, relative to AAV9): 0.000 fold
- Fold Enrichment relative to AAV9, Liver DNA (NHP) (NGS fold-enrichment, liver DNA, NHP, relative to AAV9): 0.224 fold
- Fold Enrichment relative to AAV9, Liver RNA (NHP) (NGS fold-enrichment, liver RNA, NHP, relative to AAV9): 10.218 fold
- Fold Enrichment relative to AAV9, Muscle (NHP) (NGS fold-enrichment, muscle, NHP, relative to AAV9): 0.000 fold

Sequence: KTINGSGSPHSVKKNQQT
- Fold Enrichment relative to AAV9, DRG (NHP) [1]: 0.000 fold
- Fold Enrichment relative to AAV9, Brain (NHP) [2]: 0.000 fold
- Fold Enrichment relative to AAV9, Heart (NHP) [3]: 0.000 fold
- Fold Enrichment relative to AAV9, Liver DNA (NHP) [4]: 3.908 fold
- Fold Enrichment relative to AAV9, Liver RNA (NHP) [5]: 48.475 fold
- Fold Enrichment relative to AAV9, Muscle (NHP) [6]: 0.000 fold

Sequence: KTINGSGSPHSVRCNQQT
- Fold Enrichment relative to AAV9, DRG (NHP) [1]: 0.000 fold
- Fold Enrichment relative to AAV9, Brain (NHP) [2]: 0.000 fold
- Fold Enrichment relative to AAV9, Heart (NHP) [3]: 0.000 fold
- Fold Enrichment relative to AAV9, Liver DNA (NHP) [4]: 3.912 fold
- Fold Enrichment relative to AAV9, Liver RNA (NHP) [5]: 15.860 fold
- Fold Enrichment relative to AAV9, Muscle (NHP) [6]: 0.000 fold

Sequence: KTINGSGSPHSVRYNQQT
- Fold Enrichment relative to AAV9, DRG (NHP) [1]: 0.000 fold
- Fold Enrichment relative to AAV9, Brain (NHP) [2]: 0.000 fold
- Fold Enrichment relative to AAV9, Heart (NHP) [3]: 0.000 fold
- Fold Enrichment relative to AAV9, Liver DNA (NHP) [4]: 1.413 fold
- Fold Enrichment relative to AAV9, Liver RNA (NHP) [5]: 16.390 fold
- Fold Enrichment relative to AAV9, Muscle (NHP) [6]: 0.000 fold

Sequence: KTINGSGSPHSWAPNQQT
- Fold Enrichment relative to AAV9, DRG (NHP) [1]: 0.000 fold
- Fold Enrichment relative to AAV9, Brain (NHP) [2]: 0.000 fold
- Fold Enrichment relative to AAV9, Heart (NHP) [3]: 0.000 fold
- Fold Enrichment relative to AAV9, Liver DNA (NHP) [4]: 1.789 fold
- Fold Enrichment relative to AAV9, Liver RNA (NHP) [5]: 47.897 fold
- Fold Enrichment relative to AAV9, Muscle (NHP) [6]: 0.000 fold

Sequence: KTINGSGSPHSWLKNQQT
- Fold Enrichment relative to AAV9, DRG (NHP) [1]: 0.000 fold
- Fold Enrichment relative to AAV9, Brain (NHP) [2]: 0.000 fold
- Fold Enrichment relative to AAV9, Heart (NHP) [3]: 0.000 fold
- Fold Enrichment relative to AAV9, Liver DNA (NHP) [4]: 0.603 fold
- Fold Enrichment relative to AAV9, Liver RNA (NHP) [5]: 13.995 fold
- Fold Enrichment relative to AAV9, Muscle (NHP) [6]: 0.000 fold

Sequence: KTINGSGSPHSYAFNQQT
- Fold Enrichment relative to AAV9, DRG (NHP) [1]: 0.000 fold
- Fold Enrichment relative to AAV9, Brain (NHP) [2]: 0.000 fold
- Fold Enrichment relative to AAV9, Heart (NHP) [3]: 0.000 fold
- Fold Enrichment relative to AAV9, Liver DNA (NHP) [4]: 1.742 fold
- Fold Enrichment relative to AAV9, Liver RNA (NHP) [5]: 43.037 fold
- Fold Enrichment relative to AAV9, Muscle (NHP) [6]: 0.000 fold

Sequence: KTINGSGSPHSYARNQQT
- Fold Enrichment relative to AAV9, DRG (NHP) [1]: 0.000 fold
- Fold Enrichment relative to AAV9, Brain (NHP) [2]: 0.000 fold
- Fold Enrichment relative to AAV9, Heart (NHP) [3]: 0.000 fold
- Fold Enrichment relative to AAV9, Liver DNA (NHP) [4]: 0.996 fold
- Fold Enrichment relative to AAV9, Liver RNA (NHP) [5]: 11.131 fold
- Fold Enrichment relative to AAV9, Muscle (NHP) [6]: 0.000 fold

Reference: patent US20260250318A1, “COMPOSITIONS AND METHODS FOR CROSSING THE BLOOD BRAIN BARRIER” (VOYAGER THERAPEUTICS, INC., priority 2022, published 2026)
